{"source": "patent US11981944B2", "about": "“Immunogenic arginase peptides” (IO Biotech ApS, priority 2016, dated 2024)", "format_in_all_cases": "cell-based, human", "key": {"[1]": {"test_system": "PBMCs from two healthy donors and one cancer patient", "test": "Intracellular staining for IFNγ and TNFα release in PBMCs", "procedure": "Flow cytometry analysis was performed on a FACSCanto™ II (BD Biosciences, San Jose CA, USA). Intracellular staining of cell cultures was performed after the cells were stimulated with 20-mere peptides for 5 hours or 30-mere peptides for 8h (BD GolgiPlug™ cat. 555029, was added after the first hour). The cells were then stained for surface markers, then washed and permeabilized by using Fixation/Permeabilization and Permeabilization Buffer (eBioscience, cat. 00-5123-43), according to manufacturer's instructions. Antibodies used: IFNγ-APC (cat. 341117), TNFα-BV421 (cat. 562783), CD4-FITC (cat. 347413), CD8-PerCP (cat. 345774) (all from BD Biosciences). Dead cells were stained using FVS510 (564406, BD Biosciences) according to manufacturer's instructions.\nTo investigate which types of T cells reacted to the peptide epitopes in the hot-spot region, we performed intracellular staining for IFNγ and TNFα release in PBMCs from two healthy donors and one cancer patient, which had shown responses against the Arg(161-190) peptide in IFNγ ELISPOT."}, "[2]": {"test_system": "arginase-specific CD4+ T-cell culture", "test": "Recognition by arginase-specific CD4+ T-cell culture (ArgShort-stimulated)", "procedure": "(§1) PBMCs from healthy donors or cancer patients were stimulated with 80 μg of arginase-derived peptides and 120 U/ml IL-2 (Peprotech, London, UK, cat. 200-02) for a week. 4-6×10^5 PBMCs were then placed in the bottom of ELISPOT plate (nitrocellulose bottomed 96-well plates by MultiScreen MAIP N45; Millipore, cat. MSIPN4W50) pre-coated with IFN-y capture Ab (Mabtech, cat. 3420-3-1000) and 1-10 μg of arginase derived peptides were added. PBMCs from each patient and donors were set up in duplicates or triplicates for peptide and control stimulations. Cells were incubated in ELISPOT plates in the presence of an antigen for 14-16 hours after which they are washed off and secondary biotinylated Ab (Mabtech, cat. 3420-6-1000) was added. After 2 h incubation unbound secondary antibody was washed off and streptavidin conjugated alkaline phosphatase (AP) (Mabtech, cat. 3310-10) was added for 1 h. Next, unbound conjugated enzyme is washed off and the assay is developed by adding BCIP/NBT substrate (Mabtech, cat. 3650-10). Developed ELISPOT plates were analysed on CTL ImmunoSpot S6 Ultimate-V analyzer using Immunospot software v5.1. Responses were calculated as the difference between average numbers of spots in wells stimulated with Arginase-1 peptides and control wells.\nArginase-specific T cell culture were established by stimulation of cancer patient PBMC with irradiated ArgShort (SEQ ID NO 9) peptide-loaded autologous DC or PBMCs. The following day IL-7 and IL-12 (PeproTech, London, UK, cat. 200-07-10 and 200-12) were added. Stimulation of the cultures were carried out every 8 days with ArgShort peptide loaded irradiated autologous DC followed by ArgShort peptide-loaded irradiated autologous PBMC. The day after peptide stimulation IL-2 […]. After 5 stimulations arginase-specific T cells were enriched using TNF-α cell enrichment kit (MiltenyiBiotec, cat. 130-091-269).\nFlow cytometry analysis was performed on a FACSCanto™ II (BD Biosciences, San Jose CA, USA). […]"}, "[3]": {"test_system": "PBMCs from healthy donors or cancer patients", "test": "IFNγ ELISPOT on PBMCs after one week peptide and IL-2 stimulation (Example 2)", "conditions": "selected PBMCs from cancer patients and healthy donors; one week stimulation with IL-2; FIG. 10B, 10C", "procedure": "PBMCs from healthy donors or cancer patients were stimulated with 80 μg of arginase-derived peptides and 120 U/ml IL-2 (Peprotech, London, UK, cat. 200-02) for a week. 4-6×10^5 PBMCs were then placed in the bottom of ELISPOT plate (nitrocellulose bottomed 96-well plates by MultiScreen MAIP […]; Millipore, cat. MSIPN4W50) pre-coated with IFN-y capture Ab (Mabtech, cat. 3420-3-1000) and 1-10 μg of arginase derived peptides were added. PBMCs from each patient and donors were set up in duplicates or triplicates for peptide and control stimulations. Cells were incubated in ELISPOT plates in the presence of an antigen for 14-16 hours after which they are washed off and secondary biotinylated Ab (Mabtech, cat. 3420-6-1000) was added. After 2 h incubation unbound secondary antibody was washed off and streptavidin conjugated alkaline phosphatase (AP) (Mabtech, cat. 3310-10) was added for 1 h. Next, unbound conjugated enzyme is washed off and the assay is developed by adding BCIP/NBT substrate (Mabtech, cat. 3650-10). Developed ELISPOT plates were analysed on CTL ImmunoSpot S6 Ultimate-V analyzer using Immunospot software v5.1. Responses were calculated as the difference between average numbers of spots in wells stimulated with Arginase-1 peptides and control wells. We divided the entire arginase-1 protein sequence into overlapping 20-amino-acid-long peptides, generating a library of 31 peptides covering the whole sequence (SEQ ID NOs 18-48)). Each peptide in the library overlapped with the first 10 amino acids of the following peptide. Using this arginase peptide library and the IFNγ ELISPOT assay, we next screened PBMCs from melanoma patients and healthy donors for spontaneous responses (FIGS. 9A and 9B). The PBMCs were stimulated for one week with a pool of 3-4 adjacent 20-mer arginase library peptides and low-dose IL-2 (120 U/mL). They were then set up for an IFNγ ELISPOT assay to screen for responses against each 20-mer peptide separately. […] Among these overlapping peptides, […]-200), and Arg(191-210) spanned a 50-amino-acid-long region that was deemed a hot-spot region since nearly all patients harbored a response against one or more of these peptides (FIG. 9A). The selected eight peptides were further used to screen for spontaneous immune responses against arginase-1 in PBMCs from eight healthy donors using IFNγ ELISPOT. […] Since we most frequently observed responses against arginase-1 peptides from the hot-spot region, we next analyzed whether longer peptides covering the same sequence could be used instead of four 20-mers. […] We then divided the arginase-1 hot-spot region into two 30-mer peptides that overlapped by 10 amino acids (peptides labelled by reference to start and end position): […]-190) and […]-210). These 30-mer peptides were used to check for responses in selected PBMCs from cancer patients and healthy donors, which had previously shown responses against the 20-mer hot-spot peptides. The PBMCs were stimulated for one week with either […]-190) or […]-210) in the presence of IL-2, and were then used in IFNγ ELISPOT."}, "[4]": {"test_system": "PBMCs from cancer patients", "test": "IFNγ ELISPOT with HLA Class I / Class II blocking", "conditions": "anti-Class I W6/32 or anti-Class II Tü39; FIG. 11B", "procedure": "as §1, with “wells. […]” for “wells.”"}}}
{"sequence": "GFSWVTPCISAKDIVYIGLRDVDPGEHYIL (Peptide fragment of human Arginase 1) [Arg(161-190), 30-mer, positions 161-190 of human Arginase 1]", "values": [{"measurement": "TNFα release from CD4+ T cells", "setting": "[1]; 8-hour incubation with peptide, FIG. 11A", "value": "detected TNFα release from CD4+ T cells"}, {"measurement": "response from CD8+ T cells", "setting": "[1]; some samples, data not shown", "value": "minor response"}, {"measurement": "TNFα release from CD4+ T cells, intracellular staining", "setting": "[2]; 8 hours of peptide stimulation, FIG. 11C right", "value": "TNFα release from CD4+ T cells"}, {"measurement": "recognition by T-cell culture specific against the minimal arginase epitope", "setting": "[2]; IFNγ ELISPOT and intracellular staining, FIG. 11C", "value": "recognized"}, {"measurement": "IFNγ ELISPOT responses against longer hot-spot peptides", "setting": "[3]", "value": "high responses"}, {"measurement": "IFNγ release in response to peptide on blocking HLA Class I or Class II", "setting": "[4]", "value": "partially blocked the IFNγ release"}]}
